# Data reported in patent US10111877B2, “Modulators of androgen synthesis” (Tangent Reprofiling Limited, priority 2012, dated 2018).
# System: BxPC-3 cells
# Assay: Resazurin-based cell viability assay, pancreatic cancer cell line
# Settings: 72 hours, combination equimolar, 100% = no drug, 0% = Paclitaxel
# Method: To determine whether Risperidone alone, or in combination with CLA could inhibit cell growth of cells taken from a pancreatic cancer cell line overexpressing HSD10, a resazurin-based cell viability assay was conducted on Bx-PC3 cells.
# BxPC-3 cells are from a cell line derived from a human pancreatic adenocarcinoma and are known to overexpress HSD10. BxPC-3 cells were seeded at a density of 4,000 cells per well in a 384 well plate, and incubated at 37° C., 5% CO2 for 24 hours in standard growth media (RPMI nutrient media, 5% heat-inactivated Fetal Calf Serum, 2 mM L-Glutamine). The media was then removed by pipette and replaced with 50 μL BxPC-3 treatment media comprising 125 μM fatty acid-free BSA, 2 mM L-Glutamine and one of the following drug treatments: 0.1 μM, 2 μM, or 50 μM Risperidone; 0.1 μM, 2 μM, or 50 μM CLA; or 0.1 μM, 2 μM, or 50 μM of Risperidone and CLA (in equimolar amounts). After incubation in the drug treatment for 72 hours at 37° C., 5% CO2, viable cell number was determined using a resazurin-based cell viability assay (PRESTOBLUE®; Invitrogen, Carlsbad, Calif.). To each well, 7 μL of PRESTOBLUE® reagent was added and the plates incubated for 60 minutes at 37° C., 5% CO2. After incubation, the fluorescence intensity of each well was determined using a microplate reader by excitation and 570 nm and recording emission at 600 nm. The percentage of viable cell number was calculated by normalizing the experimental fluorescence intensity, where 100% is set to cells receiving no drug treatment (cells metabolizing at optimal rate), and 0% is set to readings from cells treated with Paclitaxel (cells not metabolizing at all due to their destruction by anti-cancer drug). A value under 50% could be considered a useful indication of potential efficacy.
compound,measurement,setting,value
"CCCCCC/C=C/C=C\CCCCCCCC(=O)O [CLA, 9Z, 11E conjugated Linoleic acid]",percentage of viable cell number,0.1 uM,103%
same,percentage of viable cell number,2 uM,71%
same,percentage of viable cell number,50 uM,119%
